Laboratory results reported in patent publication US20220026414A1, “CELL-BASED BIOIDENTITY TEST FOR INSULIN” (Merck Sharp & Dohme Corp., priority 2018, published 2022).

Test system: human G6PC promoter luciferase reporter in H4IIE rat hepatoma cells
Test: H4IIE G6P-Luc reporter assay (luciferase under control of the G6PC promoter, clone C17-2)
Type: cell-based
Settings: for Geometric mean of measured relative potency: pre-qualification study
Excerpt: The H4IIE G6P-Luc C17-2 stable cell line was generated by stably expressing Luciferase reporter gene under the control of G6PC promoter via lentivirus technology. Briefly, the human G6PC promoter −1227/+57 sequence (SEQ ID NO: 1) was synthesized and subcloned into pLenti-NFAT-Luc vector to replace NFAT promoter. Lentivirus was generated comprising the construct and H4IIE parental cells were transduced with the lentivirus and screened with the selection antibiotic Hygromycin B. The resulting stable pool cells were validated by quantitative polymerase chain reaction (qPCR) and luciferase assay. The initial work of generating a H4IIE G6P-Luc stable cell line was outsourced to GenScript, Piscataway, N.J. USA. The stable cell pool was re-cloned in-house with limiting dilutions to identify additional clones. H4IIE_G6P-Luc C17-2 is a single clone stable cell line selected for its high assay window (difference in fluorescence detected in a sample containing 1 nM insulin versus fluorescence detected in a sample containing no insulin) and fast growth rate.
The H4IIE_G6P-Luc_C17-2 cells were cultured in Dulbecco's Modified Eagle's medium (DMEM), supplemented with 10% fetal bovine serum (FBS), 1× penicillin-streptomycin, and 0.3 mg/mL Hygromycin B. […] 25 μL insulin titration was aliquoted into the wells of a solid white 96-well tissue-culture treated assay plate. […] Afterwards, […] of ONE-GLO luciferase regent was added to the assay plate. After 10 minutes incubation at room temperature, luminescence signal was read on the EnVision plate reader (Perkin Elmer, Waltham, Mass. USA).

Substance | inhibition of luciferase reporter expression (top two clones (C17, C58), overnight treatment compared with seven-hour treatment (FIG. 1C)) | inhibition of luciferase reporter expression (clone C17-2, 7-hour treatment (FIG. 2A)) | inhibition of luciferase expression (clone C17-2, lower amounts of FBS in assay medium (FIG. 2C)) | inhibition of luciferase reporter expression (clone C17-2, overnight treatment (17-hours) (FIG. 2A)) | dose response curve (clone C17-2 after 29 cell passages (P29) (FIG. 2D)) | Geometric mean of measured relative potency (target relative potency 50% of reference material, N=12) | Geometric mean of measured relative potency (target relative potency 71% of reference material, N=12) | Geometric mean of measured relative potency (target relative potency 100% of reference material, N=24) | Geometric mean of measured relative potency (target relative potency 141% of reference material, N=12) | Geometric mean of measured relative potency (target relative potency 200% of reference material, N=12)
recombinant human insulin: NOVOLIN (recombinant human insulin) purchased from Novo Nordisk | significantly better inhibition | – | – | – | – | – | – | – | – | –
Insulin glargine | – | mild inhibition | Less inhibition of luciferase expression | robust inhibition | well-formed dose response curve | 51 | 68 | 103 | 132 | 196
